Laboratory results taken from US20130281491A1 (priority 2010, published 2013).

Experiment: Forced degradation of methadone hydrochloride solutions (HPLC)
Conditions: 1M hydrochloric acid or 0.1M sodium hydroxide, 25° C. for a week

Compound: CCC(=O)C(CC(C)N(C)C)(c1ccccc1)c1ccccc1 (stereo not shown) [methadone]
- Stability with acids and bases: no detected degradation
